Data on 17 compounds can be found in ChEMBL document CHEMBL1201862, “PubChem BioAssay data set” (2004).

Experiment [1] can be described thus: inhibition of ADAM10 peptide cleavage – biochemical, FRET peptide substrate, recombinant human ADAM10, selectivity assay for ADAM17 exosite inhibitor project, dose response (AID 743259).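 Note: ADAM10 enzyme cleaving a FRET peptide substrate.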
Experiment [2] has as its target Disintegrin and metalloproteinase domain-containing protein 17 (Homo sapiens, UniProt P78536). Nature of the experiment: exosite inhibitors of ADAM17, dose response, biochemical (AID 743260).
Experiment [3] concerns the target T1, Trace amine-associated receptor 1 (Homo sapiens, UniProt Q96RJ0).
T1 sequence (Q96RJ0 whole entry): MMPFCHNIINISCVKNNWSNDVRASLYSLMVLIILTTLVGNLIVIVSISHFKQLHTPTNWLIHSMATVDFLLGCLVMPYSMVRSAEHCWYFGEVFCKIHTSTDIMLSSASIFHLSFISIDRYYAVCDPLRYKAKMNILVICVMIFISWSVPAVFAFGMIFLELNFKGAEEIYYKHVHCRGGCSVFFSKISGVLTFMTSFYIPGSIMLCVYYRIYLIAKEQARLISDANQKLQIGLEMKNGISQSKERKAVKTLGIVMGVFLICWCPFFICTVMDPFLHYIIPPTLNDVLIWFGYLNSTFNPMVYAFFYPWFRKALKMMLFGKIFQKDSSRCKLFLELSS
Nature of the experiment: Fluorescence-based cell-based high throughput dose response assay to identify antagonists of the human trace amine associated receptor 1 (TAAR1). In kind it is functional.

Experiment [4] in a line: Counterscreen for […] of the human trace amine associated receptor 1 (TAAR1): Fluorescence-based cell-based high throughput dose response assay to identify nonselective Ga16 agonists. In kind it is functional. A general note: Counterscreens check selectivity or assay interference.
The target of experiment [5] is T1, Trace amine-associated receptor 1. Briefly: Counterscreen for antagonists of the human trace amine associated receptor 1 (hTAAR1): Fluorescence-based cell-based high throughput dose response assay to identify TAAR1 Agonists. The format is functional.
The nature of experiment [6]: Counterscreen for antagonists of the human trace amine associated receptor 1 (hTAAR1): Fluorescence-based cell-based high throughput dose response assay to identify nonselective Ga16 antagonists. The format is functional.
The nature of experiment [7]: IC50 of Artemis nuclease activity blockers – biochemical, fluorescence intensity, dose response (AID 720701).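 Note: Artemis endonuclease enzyme.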 In kind it is functional.
A short description of experiment [8]: cells. As to conditions: HEK293.
Experiment [9] in a line: cells.
A short description of experiment [10]: viability loss in HepG2 liver cells – cell-based, ATP luminescence, cherry-pick, set 6, cytotoxicity control, dose response (AID 1053125). In kind it is functional.
Experiment [11] is described as follows: cells. The following applies: A549.
The nature of experiment [12]: viability loss in CEM21 cells – cell-based, plate reader, dry powder, cytotoxicity control, dose response (AID 687026). In kind it is functional.
The nature of experiment [13]: inhibition of Env-driven cell fusion – HIV entry, plate reader, dry powder, dose response (AID 687023). In kind it is functional, cell-based.
The next experiment deals with Paired box protein Pax-8 (Homo sapiens, UniProt Q06710). Nature of the experiment: PAX8 transcriptional activity inhibition in RMG-I – RMG-I cells, luciferase, cherry-pick, dose response (AID 687027).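 Note: luciferase reporter driven by Pax8 target thyroperoxidase promoter measured by SteadyGlo luminescence.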 In kind it is functional, cell-based.
Experiment [14] is described as follows: PAX8-dependent cell viability loss – plate reader, dry powder, dose response (AID 743049). The format is functional, cell-based.
A short description of experiment [15]: OVCAR8 cell viability loss – plate reader, dry powder samples, PAX8 project, dose response (AID 743197). In kind it is functional, cell-based. The following applies: OVCAR-8.
The nature of experiment [16]: reduced cellular PGC1a acetyl-lysine signal – cell-based, cherry-picked samples, dose response (AID 720514).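 Note: potency may reflect raised or lowered acetylation signal.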 In kind it is functional.
Experiment [17] is described as follows: P. falciparum Dd2 growth inhibitors, dose response, SYBR Green, cherry-picked samples (AID 1159567). In kind it is functional, cell-based.
Experiment [18] is described as follows: IGROV1 cell killing – plate reader, dry powder samples, PAX8 inhibitor project, dose response (AID 743043). In kind it is functional, cell-based. As to conditions: IGROV-1.
A short description of experiment [19]: toxicity to human hepatoma HepG2 cells – cell-based, cherry-picked samples, cytotoxicity control, dose response (AID 1159577). In kind it is functional.
Experiment [20] in a line: OVCAR-3 cell viability loss – plate reader, dry powder samples, PAX8 inhibitor project, dose response (AID 743044). The format is functional, cell-based.
Experiment [21] can be described thus: A2780 cell killing – plate reader, dry powder samples, cytotoxicity control, dose response (AID 743046). In kind it is functional, cell-based.
A short description of experiment [22]: viability loss in A549 lung cells – cell-based, 24 h, CellTiter-Glo luminescence, cherry-picks, cytotoxicity control, dose response (AID 1053115). The format is functional. As to conditions: A549, 24 h. In general terms: ATP-based viability assays read luminescence as a measure of living cells.
Experiment [23] is described as follows: T. cruzi growth inhibition in host cells, dose response, cell-based, plate reader, dry powder, set 2 (AID 652275). The format is functional.
The target of experiment [24] is C-X-C chemokine receptor type 4 (Homo sapiens, UniProt P61073). Nature of the experiment: SAR analysis of small molecule antagonists of the CXCR6 receptor using a CXCR4 receptor luminescent beta-arrestin counterscreen. In kind it is functional.
The target in experiment [25] is C-C chemokine receptor type 6 (Homo sapiens, UniProt P51684). Nature of the experiment: SAR analysis of small molecule antagonists of the CXCR6 receptor using a CCR6 receptor luminescent beta-arrestin counterscreen. The format is functional.
Experiment [26] in a line: YAP1 overexpression rescue of CTGF inhibition – DLD1 cells, RT-qPCR, cherry-pick, mechanism study for YAP1 pathway inhibitor project, dose response (AID 1053127). As to conditions: DLD-1. The format is functional, cell-based. On the technique in general: Real-time PCR tracks product formation cycle by cycle.
Experiment [27] addresses T2, High affinity choline transporter 1 (Homo sapiens, UniProt Q9GZV3).
T2 sequence (Q9GZV3 whole entry): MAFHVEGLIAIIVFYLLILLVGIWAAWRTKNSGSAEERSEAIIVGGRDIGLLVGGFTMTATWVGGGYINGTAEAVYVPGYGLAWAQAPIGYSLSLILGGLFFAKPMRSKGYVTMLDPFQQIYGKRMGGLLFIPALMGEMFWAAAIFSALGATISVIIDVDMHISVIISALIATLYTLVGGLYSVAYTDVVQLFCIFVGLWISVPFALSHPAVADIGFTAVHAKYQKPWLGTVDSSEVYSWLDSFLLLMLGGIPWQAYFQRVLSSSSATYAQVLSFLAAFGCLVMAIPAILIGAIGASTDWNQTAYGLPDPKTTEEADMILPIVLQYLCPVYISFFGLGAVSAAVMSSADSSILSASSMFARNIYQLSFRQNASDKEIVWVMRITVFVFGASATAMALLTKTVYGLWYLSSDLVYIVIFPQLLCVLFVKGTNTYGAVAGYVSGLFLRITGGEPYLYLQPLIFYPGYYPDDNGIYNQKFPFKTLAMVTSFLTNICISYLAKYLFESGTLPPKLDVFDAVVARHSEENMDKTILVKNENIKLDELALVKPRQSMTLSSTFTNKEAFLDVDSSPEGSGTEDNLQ
Briefly: inhibition of SLC5A7-mediated choline transport – cell-based, HEK-293 hCHT, [3H]-choline uptake, dose response (AID 652177). The format is functional.

The nature of experiment [28]: viability loss in MITF-independent A375 cells – cell-based, CellTiter-Glo luminescence, dry powder, set 2, counter-screen for MITF inhibitor project, dose response (AID 624489).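 Note: actives are compounds lowering A375 viability meaning general cytotoxicity.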 In kind it is functional. The following applies: A-375.
Experiment [29] is described as follows: cytotoxicity in MITF-independent A375 cells – cell-based, CellTiter-Glo luminescence, dry powder, set 4, counter-screen for MITF inhibitor project, dose response (AID 624364).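 Note: A375 melanoma cells are MITF independent so this is a counter screen.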 In kind it is functional. The following applies: A-375.
A further experiment deals with Kallikrein-7 (Homo sapiens, UniProt P49862). Briefly: Fluorescence Intensity-based biochemical primary high throughput dose response assay to identify activators of kallikrein-7 (K7) zymogen.
For experiment [30], the target named is 1-phosphatidylinositol 4,5-bisphosphate phosphodiesterase beta-3 (Homo sapiens, UniProt Q01970). Nature of the experiment: Fluorescence-based biochemical high throughput dose response assay to identify inhibitors of phospholipase C isozymes (PLC-B3).
Experiment [31] has as its target 1-phosphatidylinositol 4,5-bisphosphate phosphodiesterase gamma-1 (Homo sapiens, UniProt P19174). Briefly: Counterscreen for inhibitors of phospholipase C isozymes (PLC-B3): Fluorescence-based biochemical high throughput dose response assay to identify inhibitors of phospholipase C isozymes (PLC-gamma1).
Experiment [32] deals with T3, DNA repair protein RAD52 homolog (Homo sapiens, UniProt P43351).
T3 sequence (P43351 whole entry): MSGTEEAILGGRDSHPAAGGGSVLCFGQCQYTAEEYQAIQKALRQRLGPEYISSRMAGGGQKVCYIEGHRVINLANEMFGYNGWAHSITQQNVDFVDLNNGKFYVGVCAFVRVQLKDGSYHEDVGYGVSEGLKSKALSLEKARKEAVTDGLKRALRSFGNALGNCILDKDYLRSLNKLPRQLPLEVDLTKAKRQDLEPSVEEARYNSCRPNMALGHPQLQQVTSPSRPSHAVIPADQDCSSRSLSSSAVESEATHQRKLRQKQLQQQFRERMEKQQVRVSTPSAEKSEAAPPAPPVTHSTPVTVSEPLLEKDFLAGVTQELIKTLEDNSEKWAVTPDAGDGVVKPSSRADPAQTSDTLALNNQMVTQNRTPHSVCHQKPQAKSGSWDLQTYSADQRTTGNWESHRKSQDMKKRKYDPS
In kind it is functional, biochemical.

A short description of experiment [33]: viability loss in HepG2 hepatoma cells – cell-based, ATP luminescence, cherry-pick, activator set 2, cytotoxicity control, dose response (AID 1053143). In kind it is functional.

Several values for one entry are separate records, joined by “and”; a condition that tells them apart may be missing. Identical values can stand only once. Activity calls are given as the source filed them.

Chain of Paired box protein Pax-8 (Q06710 whole entry): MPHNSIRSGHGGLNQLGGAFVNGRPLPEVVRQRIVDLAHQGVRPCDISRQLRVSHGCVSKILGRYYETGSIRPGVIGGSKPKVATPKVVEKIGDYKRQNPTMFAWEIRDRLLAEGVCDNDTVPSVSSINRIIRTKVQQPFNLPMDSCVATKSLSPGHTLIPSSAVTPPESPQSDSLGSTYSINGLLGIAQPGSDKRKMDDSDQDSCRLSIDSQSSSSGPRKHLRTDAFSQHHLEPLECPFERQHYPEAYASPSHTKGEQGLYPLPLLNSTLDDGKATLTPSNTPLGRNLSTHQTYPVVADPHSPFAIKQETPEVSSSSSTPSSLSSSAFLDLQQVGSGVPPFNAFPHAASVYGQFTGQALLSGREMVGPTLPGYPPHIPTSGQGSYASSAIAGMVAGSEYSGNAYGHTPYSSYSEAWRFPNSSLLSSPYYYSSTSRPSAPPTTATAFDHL
Chain of Disintegrin and metalloproteinase domain-containing protein 17 (P78536 whole entry, the tested form may be a part): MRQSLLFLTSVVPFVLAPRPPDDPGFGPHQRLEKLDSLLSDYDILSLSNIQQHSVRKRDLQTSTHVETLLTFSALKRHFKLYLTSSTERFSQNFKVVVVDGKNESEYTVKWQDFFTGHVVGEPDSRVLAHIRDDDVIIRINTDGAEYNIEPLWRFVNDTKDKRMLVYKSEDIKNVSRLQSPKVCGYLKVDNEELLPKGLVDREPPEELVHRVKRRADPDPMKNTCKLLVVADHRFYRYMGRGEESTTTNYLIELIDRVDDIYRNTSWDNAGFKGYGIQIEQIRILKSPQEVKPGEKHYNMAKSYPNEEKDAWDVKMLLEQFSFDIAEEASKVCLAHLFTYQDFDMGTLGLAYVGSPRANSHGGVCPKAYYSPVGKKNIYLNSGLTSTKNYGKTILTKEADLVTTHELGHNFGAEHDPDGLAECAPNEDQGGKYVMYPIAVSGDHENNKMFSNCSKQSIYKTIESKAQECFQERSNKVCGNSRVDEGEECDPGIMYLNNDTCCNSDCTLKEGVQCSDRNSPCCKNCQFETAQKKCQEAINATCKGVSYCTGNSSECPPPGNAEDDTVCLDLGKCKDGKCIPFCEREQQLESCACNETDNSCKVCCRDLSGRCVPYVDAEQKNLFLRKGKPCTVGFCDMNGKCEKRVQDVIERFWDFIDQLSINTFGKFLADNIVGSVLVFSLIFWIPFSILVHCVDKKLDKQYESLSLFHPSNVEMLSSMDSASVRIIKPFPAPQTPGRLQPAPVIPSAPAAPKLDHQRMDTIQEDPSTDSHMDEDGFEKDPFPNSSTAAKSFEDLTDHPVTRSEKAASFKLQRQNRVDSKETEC
Chain of 1-phosphatidylinositol 4,5-bisphosphate phosphodiesterase gamma-1 (P19174 whole entry): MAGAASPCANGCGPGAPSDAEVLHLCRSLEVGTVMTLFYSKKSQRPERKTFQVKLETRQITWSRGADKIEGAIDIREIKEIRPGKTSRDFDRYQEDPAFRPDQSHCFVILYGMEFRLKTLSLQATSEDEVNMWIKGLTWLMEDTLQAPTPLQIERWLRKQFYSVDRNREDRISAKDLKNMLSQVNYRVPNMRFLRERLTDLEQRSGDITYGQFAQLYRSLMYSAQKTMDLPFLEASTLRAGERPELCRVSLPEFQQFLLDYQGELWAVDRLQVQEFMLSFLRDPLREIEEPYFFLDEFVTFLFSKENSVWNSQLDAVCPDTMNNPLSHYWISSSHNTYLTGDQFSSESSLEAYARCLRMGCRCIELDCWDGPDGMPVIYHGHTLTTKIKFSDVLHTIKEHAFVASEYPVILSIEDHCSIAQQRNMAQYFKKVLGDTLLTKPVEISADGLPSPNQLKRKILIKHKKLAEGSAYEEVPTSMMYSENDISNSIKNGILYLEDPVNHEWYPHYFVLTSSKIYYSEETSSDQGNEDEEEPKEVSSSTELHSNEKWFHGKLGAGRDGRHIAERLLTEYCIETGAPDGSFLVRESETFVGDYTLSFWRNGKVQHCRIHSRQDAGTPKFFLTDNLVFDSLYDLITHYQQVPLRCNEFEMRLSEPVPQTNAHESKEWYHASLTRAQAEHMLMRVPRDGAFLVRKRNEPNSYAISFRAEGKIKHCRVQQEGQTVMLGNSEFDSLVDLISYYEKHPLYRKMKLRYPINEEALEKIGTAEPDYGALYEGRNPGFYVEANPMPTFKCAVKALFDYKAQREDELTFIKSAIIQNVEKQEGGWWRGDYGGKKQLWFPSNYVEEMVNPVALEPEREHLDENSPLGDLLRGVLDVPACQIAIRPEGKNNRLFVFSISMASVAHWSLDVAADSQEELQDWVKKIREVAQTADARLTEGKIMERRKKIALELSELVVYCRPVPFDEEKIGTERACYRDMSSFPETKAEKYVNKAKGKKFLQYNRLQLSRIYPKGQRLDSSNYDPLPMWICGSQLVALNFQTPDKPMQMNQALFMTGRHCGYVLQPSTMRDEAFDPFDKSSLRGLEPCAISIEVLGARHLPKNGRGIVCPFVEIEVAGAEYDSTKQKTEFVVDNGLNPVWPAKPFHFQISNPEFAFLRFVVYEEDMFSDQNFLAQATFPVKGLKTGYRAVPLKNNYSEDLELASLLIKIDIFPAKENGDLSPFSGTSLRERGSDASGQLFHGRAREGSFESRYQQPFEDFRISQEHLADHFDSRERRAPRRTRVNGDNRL
Chain of Kallikrein-7 (P49862 whole entry): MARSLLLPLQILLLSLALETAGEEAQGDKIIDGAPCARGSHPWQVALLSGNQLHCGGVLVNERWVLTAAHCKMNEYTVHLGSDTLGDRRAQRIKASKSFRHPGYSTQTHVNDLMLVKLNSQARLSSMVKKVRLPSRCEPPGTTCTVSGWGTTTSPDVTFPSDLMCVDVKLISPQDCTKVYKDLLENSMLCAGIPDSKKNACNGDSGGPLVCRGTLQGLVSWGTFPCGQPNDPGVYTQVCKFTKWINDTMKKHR
Chain of C-X-C chemokine receptor type 4 (P61073 whole entry): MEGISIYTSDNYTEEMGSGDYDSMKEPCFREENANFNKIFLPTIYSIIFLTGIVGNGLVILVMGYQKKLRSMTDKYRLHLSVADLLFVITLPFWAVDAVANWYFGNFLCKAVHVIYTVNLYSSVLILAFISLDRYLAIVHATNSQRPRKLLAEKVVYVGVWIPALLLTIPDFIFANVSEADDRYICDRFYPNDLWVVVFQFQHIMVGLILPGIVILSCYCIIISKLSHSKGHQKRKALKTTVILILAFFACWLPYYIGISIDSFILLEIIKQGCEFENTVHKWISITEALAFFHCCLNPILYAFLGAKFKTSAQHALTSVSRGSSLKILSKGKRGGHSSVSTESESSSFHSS
Chain of 1-phosphatidylinositol 4,5-bisphosphate phosphodiesterase beta-3 (Q01970 whole entry): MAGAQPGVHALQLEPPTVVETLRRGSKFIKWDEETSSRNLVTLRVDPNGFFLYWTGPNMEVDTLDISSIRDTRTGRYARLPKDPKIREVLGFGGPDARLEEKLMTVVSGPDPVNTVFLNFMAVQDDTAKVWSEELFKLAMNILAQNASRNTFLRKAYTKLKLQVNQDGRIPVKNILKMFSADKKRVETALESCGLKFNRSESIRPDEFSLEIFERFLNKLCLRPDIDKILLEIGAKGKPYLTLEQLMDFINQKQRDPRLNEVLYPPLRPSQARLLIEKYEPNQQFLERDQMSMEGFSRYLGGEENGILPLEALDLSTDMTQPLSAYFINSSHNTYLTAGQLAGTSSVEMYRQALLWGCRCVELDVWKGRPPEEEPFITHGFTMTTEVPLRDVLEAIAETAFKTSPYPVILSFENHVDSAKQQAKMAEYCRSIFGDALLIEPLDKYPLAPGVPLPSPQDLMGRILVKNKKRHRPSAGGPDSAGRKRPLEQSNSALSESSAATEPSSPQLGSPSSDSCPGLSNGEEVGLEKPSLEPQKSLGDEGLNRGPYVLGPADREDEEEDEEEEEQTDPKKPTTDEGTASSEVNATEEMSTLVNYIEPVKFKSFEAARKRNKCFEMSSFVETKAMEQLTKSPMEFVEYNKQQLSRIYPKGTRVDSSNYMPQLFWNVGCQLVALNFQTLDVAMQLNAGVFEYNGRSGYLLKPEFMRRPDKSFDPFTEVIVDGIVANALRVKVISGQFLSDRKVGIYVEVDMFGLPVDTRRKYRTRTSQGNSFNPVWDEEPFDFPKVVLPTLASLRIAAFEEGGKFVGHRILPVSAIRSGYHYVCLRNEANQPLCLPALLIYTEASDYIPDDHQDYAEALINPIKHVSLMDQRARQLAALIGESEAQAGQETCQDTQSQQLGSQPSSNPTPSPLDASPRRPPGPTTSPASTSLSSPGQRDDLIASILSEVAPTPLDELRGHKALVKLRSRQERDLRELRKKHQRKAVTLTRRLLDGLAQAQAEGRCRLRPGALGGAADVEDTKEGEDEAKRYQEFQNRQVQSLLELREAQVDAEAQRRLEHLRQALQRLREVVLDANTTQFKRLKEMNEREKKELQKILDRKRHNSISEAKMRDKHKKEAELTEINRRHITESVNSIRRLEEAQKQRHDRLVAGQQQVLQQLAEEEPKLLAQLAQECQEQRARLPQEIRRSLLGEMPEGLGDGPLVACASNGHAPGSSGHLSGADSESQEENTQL
Chain of C-C chemokine receptor type 6 (P51684 whole entry): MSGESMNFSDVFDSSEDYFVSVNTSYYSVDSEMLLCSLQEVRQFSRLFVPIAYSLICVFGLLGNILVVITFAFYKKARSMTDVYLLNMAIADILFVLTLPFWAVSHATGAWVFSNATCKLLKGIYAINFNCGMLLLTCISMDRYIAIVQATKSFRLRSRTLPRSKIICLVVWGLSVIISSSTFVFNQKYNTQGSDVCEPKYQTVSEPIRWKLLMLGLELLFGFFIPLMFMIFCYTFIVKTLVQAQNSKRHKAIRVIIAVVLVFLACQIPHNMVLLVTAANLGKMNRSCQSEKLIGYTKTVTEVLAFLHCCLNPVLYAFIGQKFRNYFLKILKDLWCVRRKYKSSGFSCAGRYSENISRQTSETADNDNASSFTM

Turning to `CCSc1nsc(NC(=O)Nc2cccc(OC)c2)n1`, the IC50 in [1] and in experiment [2] was > 69.5 µM (inactive) each time.
Regarding `CN1CCN(c2ncnc3c2c(-c2ccccc2)cn3-c2ccc(F)cc2)CC1`, the half-inhibitory concentration (IC50) (usually the midpoint of a concentration-inhibition curve) was 3.17 µM (active) in [3] and > 29.9 µM (inactive) in [6]. In addition, the EC50 (commonly the concentration needed to bring the measured effect to its halfway point) in [4] is > 29.9 µM (inactive); in experiment [5], 10 µM (inactive).
Consider `Cc1ccc(C(=O)N/C(=C\c2ccc(-c3cc(Cl)ccc3Cl)o2)C(=O)NCc2cccnc2)cc1`, for which, in experiment [7], the IC50 was > 20 µM (inactive).
On to `N=c1oc2cc(O)ccc2cc1C(=O)Nc1ccc(Cl)cc1`, for which the AC50 (in general, the concentration at which the activity in the assay is half-maximal) was > 52 µM (inactive) in the experiment “cells [8]”, 1.95 µM (active) in the experiment “cells [9]”, > 52 µM (inactive) in [10] and > 52 µM (inactive) in the experiment “cells [11]”.
Regarding `Clc1ccc2c(c1)C(C1=NCCN1)c1ccccc1CS2` (centres undefined), the AC50 is > 70 µM (inactive) in experiment [12]; 42.5 µM (active) and 54 µM (active) in [13].
`C[C@@H]1CN([C@H](C)CO)C(=O)CCCn2cc(nn2)CO[C@H]1CN(C)C(=O)Nc1ccc(-c2cccs2)cc1`: the values for the concentration at half-maximal activity (AC50) (at Paired box protein Pax-8; in [14]; in experiment [15]) were < 0.26 µM (active), 1.65 µM (active) and > 70 µM (inactive), respectively.
Regarding `O=C(Nc1ccc(C(F)(F)F)cc1)N1C[C@@H]2N[C@H](C1)[C@@H]2c1ccc(/C=C/c2ccccc2)cc1`, the AC50 is 21.7 µM (active) at Paired box protein Pax-8; 1.57 µM (active) in [16]; 2.93 µM (active) in experiment [17]; 50.8 µM (active) in experiment [18]; 2.56 µM (active) in experiment [19]; 36.8 µM (active) in [20].
With `O=C(C1CCC1)N1CC(=O)N2[C@H](C1)[C@H](c1ccc(C#Cc3cccc(F)c3)cc1)[C@@H]2CO`, the AC50 on Paired box protein Pax-8 is 10.6 µM (active); in [15], > 70 µM (inactive); in [21], 18 µM (active); in [20] it was 9.85 µM (active).
For `N#Cc1ccc(-c2ccc3c(c2)[C@@H]2[C@@H](CCN2C(=O)C2CCCCC2)[C@H](CO)N3)cc1`, the AC50 in experiment [22] is 46.8 µM (active).
`CN(C)CC#Cc1cccc(-c2nc(C(=O)NCc3ccc4c(c3)OCO4)cc3c2[C@H](CCO)N([S+]([O-])C(C)(C)C)C3)c1` (some centres undefined): in experiment [23], the concentration at half-maximal activity (AC50) is 1.38 µM (active).
For the compound `COc1ccc(NC(=O)CN2C3CCCC2CC(NC(=O)c2cc(OC)c(OC)c(OC)c2)C3)cc1` (centres undefined), the IC50 in [24] and in experiment [25] was > 79 µM (inactive) each time.
With `Cc1ccccc1-c1ccc([C@H]2[C@@H](CO)N3CCCCN(S(=O)(=O)Cc4ccccc4)C[C@@H]23)cc1`, in experiment [26], the AC50 is > 26 µM (inactive).
For `COc1ccc(C(=O)NCc2nc(C)cs2)cc1OC1CCN(C(C)C)CC1`, the IC50 in experiment [27] was 77.3 µM (inactive).
For `C=CCNC1=C(N2CCN(CC)CC2)C(=O)c2ccccc2C1=O`, the concentration at half-maximal activity (AC50) in [28] is 13.8 µM (active); in experiment [29], 29.3 µM (active).
As for `COc1ccc(OC)c(/C=N\NC(=O)c2c(C)nc3cc(C)ccn23)c1`, the EC50 at Kallikrein-7 is > 69.6 µM (inactive).
For `O=C(O)CCCN1C(=O)/C(=C\c2ccco2)SC1=S`, the IC50 in experiment [30] and in [31] was > 123 µM (inactive) throughout.
`CCN1CCN(c2cc(C)c3cc(NC(=O)c4cc(OC)cc(OC)c4)ccc3n2)CC1`: the half-maximal activity concentration (AC50) in [32] was 11.2 µM (active); in experiment [33] it was 17.1 µM (active).
